# Measurements as given in the supplement of paper PMC10307832.
# Columns and labels:
# Test in all cases: relative viability (nuclei count vs DMSO), 5 days (fraction); higher = more cells survive
# Elesclomol + Crizotinib = compound: CN(NC(=O)CC(=O)NN(C)C(=S)c1ccccc1)C(=S)c1ccccc1 [Elesclomol] + C[C@@H](Oc1cc(-c2cnn(C3CCNCC3)c2)cnc1N)c1c(Cl)ccc(F)c1Cl [Crizotinib] (partner 1 µM)
# Procedure, shortened: (§1)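 Relative viability divides the nuclei count in treated wells by that in vehicle wells. Lung cancer cell lines were seeded in 1536-well plates, dosed by pin tool the next day, and fixed and stained after 5 days in one step with final 0.05% Triton X-100, 1% formaldehyde and 1 ug/ml Hoechst. Dosing was a single drug or a fixed anchor-drug dose plus five library-drug doses (not always all listed) in √10 steps, and values are medians of duplicate plates imaged at 4×.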
# Elesclomol + Pictilisib = compound: CN(NC(=O)CC(=O)NN(C)C(=S)c1ccccc1)C(=S)c1ccccc1 [Elesclomol] + CS(=O)(=O)N1CCN(Cc2cc3nc(-c4cccc5[nH]ncc45)nc(N4CCOCC4)c3s2)CC1 [Pictilisib] (partner 1 µM)
# Procedure, shortened: as §1
# Elesclomol + Trametinib = compound: CN(NC(=O)CC(=O)NN(C)C(=S)c1ccccc1)C(=S)c1ccccc1 [Elesclomol] + CC(=O)Nc1cccc(-n2c(=O)n(C3CC3)c(=O)c3c(Nc4ccc(I)cc4F)n(C)c(=O)c(C)c32)c1 [Trametinib] (partner 0.02 µM)
# Procedure, shortened: as §1
# Elesclomol + Olaparib = compound: CN(NC(=O)CC(=O)NN(C)C(=S)c1ccccc1)C(=S)c1ccccc1 [Elesclomol] + O=C(c1cc(Cc2n[nH]c(=O)c3ccccc23)ccc1F)N1CCN(C(=O)C2CC2)CC1 [Olaparib] (partner 8 µM)
# Procedure, shortened: as §1
# Elesclomol + AZD7762 = compound: CN(NC(=O)CC(=O)NN(C)C(=S)c1ccccc1)C(=S)c1ccccc1 [Elesclomol] + NC(=O)Nc1cc(-c2cccc(F)c2)sc1C(=O)N[C@H]1CCCNC1 [AZD7762] (partner 0.2 µM)
# Procedure, shortened: as §1
Cell Line,relative viability (Elesclomol + Crizotinib; first compound 0.003162 µM),relative viability (Elesclomol + Crizotinib; first compound 0.01 µM),relative viability (Elesclomol + Crizotinib; first compound 0.03162 µM),relative viability (Elesclomol + Crizotinib; first compound 0.1 µM),relative viability (Elesclomol + Pictilisib; first compound 0.003162 µM),relative viability (Elesclomol + Pictilisib; first compound 0.01 µM),relative viability (Elesclomol + Pictilisib; first compound 0.03162 µM),relative viability (Elesclomol + Pictilisib; first compound 0.1 µM),relative viability (Elesclomol + Trametinib; first compound 0.003162 µM),relative viability (Elesclomol + Trametinib; first compound 0.01 µM),relative viability (Elesclomol + Trametinib; first compound 0.03162 µM),relative viability (Elesclomol + Trametinib; first compound 0.1 µM),relative viability (Elesclomol + Olaparib; first compound 0.003162 µM),relative viability (Elesclomol + Olaparib; first compound 0.01 µM),relative viability (Elesclomol + Olaparib; first compound 0.03162 µM),relative viability (Elesclomol + Olaparib; first compound 0.1 µM),relative viability (Elesclomol + AZD7762; first compound 0.003162 µM),relative viability (Elesclomol + AZD7762; first compound 0.01 µM),relative viability (Elesclomol + AZD7762; first compound 0.03162 µM),relative viability (Elesclomol + AZD7762; first compound 0.1 µM)
NCI-H661,0.991,0.619,0.361,0.283,0.356,0.373,0.214,0.212,0.565,0.404,0.314,0.244,0.702,0.464,0.271,0.186,–,–,–,–
NCI-H1563,0.649,0.623,0.502,0.453,0.656,0.582,0.587,0.486,–,–,–,–,–,–,–,–,–,–,–,–
IA-LM,0.746,0.343,0.0493,0.0241,0.275,0.126,0.052,0.0237,–,–,–,–,0.892,0.526,0.181,0.115,–,–,–,–
NCI-H2342,–,–,–,–,–,–,–,–,0.877,0.839,0.756,0.616,0.476,0.37,0.434,0.367,0.385,0.461,0.4,0.441
SK-MES-1,1.06,0.887,0.964,0.625,0.402,0.312,0.238,0.199,0.584,0.635,0.501,0.415,0.713,0.656,0.339,0.231,–,–,–,–
ABC-1,0.195,0.136,0.223,0.289,0.26,0.286,0.217,0.223,–,–,–,–,0.23,0.428,0.248,0.342,0.294,0.252,0.309,0.236
COR-L 105,0.787,0.407,0.288,0.207,0.398,0.284,0.249,0.219,0.465,0.478,0.316,0.311,0.713,0.575,0.365,0.275,–,–,–,–
NCI-H2009,1.06,0.644,0.137,0.109,0.797,0.225,0.122,0.0966,0.283,0.259,0.15,0.0957,0.643,0.515,0.128,0.109,–,–,–,–
NCI-H1703,0.151,0.137,0.0928,0.0853,0.198,0.106,0.133,0.128,–,–,–,–,0.173,0.0985,0.093,0.0575,0.132,0.0974,0.124,0.0978
NCI-H2023,0.44,0.248,0.0779,0.0736,0.219,0.148,0.0682,0.0514,0.469,0.149,0.0579,0.045,0.465,0.272,0.143,0.102,–,–,–,–
